Measurements as given in US9345742B2, “Aminostatin derivatives for the treatment of arthrosis” (MERCK PATENT GMBH, priority 2011, dated 2016).
Numbered stars: 1 amine (or outer) side, 2 acyl side, 3 side chain; on linkers, the order of the positions; unused ones are H or OH. Square brackets hold non-standard residues; d marks the D form. Peptide text beside a SMILES is read from it. * marks the point of attachment. X1 = N[C@@H](CC(=O)[*:2])[C@H](Cc1ccccc1)N[*:1]; 1Nal = N[C@@H](Cc1cccc2ccccc12)C(=O)O; Isovaleryl = CC(C)CC(=O)*; Abu = CC[C@H](N)C(=O)O; Boc = CC(C)(C)OC(=O)*

What was measured:
[1] = target: cathepsin D isolated from the human liver (Homo sapiens (Human), UniProt P07339); assay: In-vitro fluorescence assay for identification of cathepsin D inhibitors; type: biochemical; details: cathepsin D 1.4 nM, pH 5.5; read-out: CatD assay IC50-
Chain of cathepsin D isolated from the human liver (P07339 65-161): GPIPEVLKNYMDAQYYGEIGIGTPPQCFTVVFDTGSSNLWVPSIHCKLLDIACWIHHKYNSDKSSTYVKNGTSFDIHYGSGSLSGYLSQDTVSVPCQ
Chain of cathepsin D isolated from the human liver (P07339 169-412): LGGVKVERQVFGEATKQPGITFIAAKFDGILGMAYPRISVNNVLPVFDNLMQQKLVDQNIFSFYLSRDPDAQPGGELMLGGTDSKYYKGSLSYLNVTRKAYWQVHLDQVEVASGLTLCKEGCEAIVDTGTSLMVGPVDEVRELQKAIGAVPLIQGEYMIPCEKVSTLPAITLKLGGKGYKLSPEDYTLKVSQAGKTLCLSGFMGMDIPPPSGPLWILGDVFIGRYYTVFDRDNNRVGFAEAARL
Method: In order to identify modulators of cathepsin D activity, a continuous enzymatic test was carried out with a synthetic peptide which carries a fluorescent group (MCA=(7-methoxycoumarin-4-yl)acetyl) which is quenched by energy transfer from a Dpn (2,4 dinitrophenyl) group on the same molecule, in Greiner 384-well nb microtitre plates. Cleavage of the peptidic substrate by cathepsin D causes an increase in the fluorescence intensity. In order to determine the efficacy of substances, the time-dependent increase in the fluorescence intensity in the presence of the substance was compared with the time-dependent increase in fluorescence in the absence of substances. The reference substance used was pepstatin A (Sigma-Aldrich). The substrate used was […](Dnp)d-R—NH2 (Enzo Life Sciences, Lörrach). The enzyme employed was cathepsin D isolated from the human liver (Sigma-Aldrich) in a final concentration of 1.4 nM. The test was carried out in 100 mM sodium acetate buffer, 1.25% (v/v) of DMSO, 0.25% (w/v) of Chaps, pH 5.5. 2 μl of each substance solution with serially diluted substance concentration were added to in each case 4 μl of cathepsin D solution and incubated at room temperature for 10 min. The reaction was started by addition of 2 μl of substrate solution (final concentration 5 μM). After carrying out a starting-point fluorescence measurement (excitation wavelength 340 nm/emission wavelength 450 nm) using an Envision multilabel reader (Perkin Elmer), the reaction was incubated at room temperature for 60 min. The amount of peptide fragment cleaved off during the reaction time was subsequently measured by determination of the increase in the fluorescence intensity at 450 nm (excitation wavelength 340 nm).

recombinant human renin = recombinant human renin (Homo sapiens (Human), UniProt P00797); assay: In-vitro fluorescence assay for identification of renin-inhibitory activity; type: biochemical; details: recombinant human renin 10 nM, pH 7.2; read-out: Renin selectivity IC50
Chain of recombinant human renin (P00797 67-406): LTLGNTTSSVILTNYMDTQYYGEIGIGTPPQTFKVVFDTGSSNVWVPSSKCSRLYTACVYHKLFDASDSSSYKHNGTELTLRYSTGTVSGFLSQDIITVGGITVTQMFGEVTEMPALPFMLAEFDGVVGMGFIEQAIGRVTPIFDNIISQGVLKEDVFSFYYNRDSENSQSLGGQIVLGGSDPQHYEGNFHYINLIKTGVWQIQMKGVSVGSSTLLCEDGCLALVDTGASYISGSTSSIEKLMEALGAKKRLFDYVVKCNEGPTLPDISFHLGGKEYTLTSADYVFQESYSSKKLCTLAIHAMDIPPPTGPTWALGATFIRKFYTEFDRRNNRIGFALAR
Method: In order to identify modulators of renin activity, a continuous enzymatic test was carried out with a synthetic peptide which carries a fluorescent group Edans (=(5-(aminoethyl)aminonaphthalenesulfonate) which is quenched by energy transfer from a Dabcyl (4′-dimethylaminoazobenzene-4-carboxylate) group on the same molecule, in Greiner 384-well microtitre plates. Cleavage of the peptidic substrate by renin causes an increase in the fluorescence intensity. In order to determine the efficacy of substances, the time-dependent increase in the fluorescence intensity in the presence of the substance was compared with the time-dependent increase in fluorescence in the absence of substances. The reference substance used was renin inhibitor 2 (Z-Arg-Arg-Pro-Phe-His-Sta-Ile-His N-Boc-Lys methyl ester Z) (Sigma-Aldrich). The substrate used was renin FRET substrate I (DABCYL-g-Abu-[…]EDANS) (Anaspec, Fremont Calif.). The enzyme employed was recombinant human renin (Proteos, Kalamazoo, Mich.) in a final concentration of 10 nM. The test was carried out in 50 mM Mops buffer, 1.5% (v/v) of DMSO, 0.1% (w/v) of Igepal®, pH 7.2, 0.5% (w/v) of BSA. 2 μl of each substance solution with serially diluted substance concentration were added to in each case 4 μl of renin solution and incubated at room temperature for 15 min. The reaction was started by addition of 4 μl of substrate solution (final concentration 5 μM). After carrying out a starting-point fluorescence measurement (excitation wavelength 340 nm/emission wavelength 495 nm) using an Envision multilabel reader (Perkin Elmer), the reaction was incubated at 37° C. for 60 min. The amount of peptide fragment cleaved off during the reaction time was subsequently measured by determination of the increase in the fluorescence intensity at 495 nm (excitation wavelength 340 nm).

| Compound | IC50 [1] [nM] | IC50 (recombinant human renin) [nM] |
| --- | --- | --- |
| CC[C@H](C)[C@H](NC(=O)C[C@H](N)[C@H](Cc1ccccc1)NC(=O)[C@@H](NC(=O)[C@H](CC(C)C)NC(=O)CC(C)C)C(C)C)C(=O)NCc1ccccc1 [Compound 29, N-((1S,2S)-1-Benzylcarbamoyl-2-methylbutyl)-(S)-3-amino-4-{(S)-(S)-3-methyl-2-[(S)-4-methyl-2-(3-methylbutyrylamino)-pentanoylamino]butyrylamino}-5-phenylpentanamide] | 180 | > 30000 |
| CC[C@H](NC(=O)[C@H](CC(C)C)NC(=O)CC(C)C)C(=O)N[C@@H](Cc1ccccc1)[C@@H](N)CC(=O)NCCc1ccc(Cl)c(Cl)c1 [Compound 6, N-[2-(3,4-Dichlorophenyl)ethyl]-(3S,4S)-3-amino-4-{(S)-2-[(S)-4-methyl-2-(3-methyl-butyrylamino)pentanoylamino]butyryl-amino}-5-phenylpentanamide] | 1200 | > 30000 |
| CC[C@H](C)[C@H](NC(=O)C[C@H](N)[C@H](Cc1ccccc1)NC(=O)[C@@H](NC(=O)[C@H](CC(C)C)NC(=O)OC(C)(C)C)C(C)C)C(=O)N[C@H](C(=O)OC)C(C)C [Compound 16, Methyl (S)-2-((2S,3S)-2-{(3S,4S)-3-amino-4-[(S)-2-((S)-2-tert-butoxycarbonylamino-4-methylpentanoylamino)-3-methylbutyrylamino]-5-phenylpentanoylamino}-3-methyl-pentanoylamino)-3-methylbutyrate] (Boc-LV[X1]IV-OMe) | 36 |  |
| COC(=O)[C@@H](NC(=O)[C@H](Cc1cccc2ccccc12)NC(=O)C[C@H](N)[C@H](Cc1ccccc1)NC(=O)[C@@H](NC(=O)[C@H](CC(C)C)NC(=O)CC(C)C)C(C)C)C(C)C [Compound 28, Methyl (S)-2-[(S)-2-((3S,4S)-3-amino-4-{(S)-3-methyl-2-[(S)-4-methyl-2-(3-methyl-butyrylamino)pentanoylamino]butyryl-amino}-5-phenylpentanoylamino)-3-naphthalen-1-ylpropionylamino]-3-methylbutyrate] (Isovaleryl-LV[X1][1Nal]V-OMe) | 3.7 | > 30000 |
| CC[C@H](C)[C@H](NC(=O)Cc1cccc(OC(F)(F)F)c1)C(=O)N[C@@H](Cc1ccccc1)[C@@H](N)CC(=O)N[C@H](C(=O)N[C@H](CO)C(C)C)[C@@H](C)CC [Compound 41, N-{(2S,3S)-1-[1-((S)-Hydroxymethyl)-2-methylpropylcarbamoyl]-2-methylbutyl)-3-(S)-amino-4-{(S)-(2S,3S)-3-methyl-2-[2-(3-trifluoromethoxyphenyl)acetylamino]-pentanoylamino}-5-phenylpentanamide] | 48 | > 30000 |
| CC[C@H](C)[C@H](NC(=O)C[C@H](N)[C@H](Cc1ccccc1)NC(=O)[C@@H](NC(=O)[C@@H](N)Cc1ccccc1)C(C)C)C(=O)N[C@H](C(=O)OC)C(C)C [Compound 21, Methyl (S)-2-((2S,3S)-2-{(3S,4S)-3-amino-4-[(S)-2-((S)-2-amino-3-phenylpropionylamino)-3-methylbutyrylamino]-5-phenyl-pentanoylamino)-3-methylpentanoyl-amino)-3-methylbutyrate] (H-FV[X1]IV-OMe) | 81 |  |
| CC[C@H](C)[C@H](NC(=O)C[C@H](N)[C@H](Cc1ccccc1)NC(=O)[C@@H](NC(=O)COc1ccc(Cl)cc1Cl)C(C)C)C(=O)N[C@H](C(=O)OC)C(C)C [Compound 22, Methyl (S)-2-[(2S,3S)-2-((3S,4S)-3-amino-4-{(S)-2-[2-(2,4-dichlorophenoxy)acetylamino]-3-methylbutyrylamino)-5-phenyl-pentanoylamino)-3-methylpentanoyl-amino]-3-methylbutyrate] | 27 |  |
| CC[C@H](C)[C@H](NC(=O)C[C@H](N)[C@H](Cc1ccccc1)NC(=O)[C@@H](NC(=O)[C@H](Cc1ccccc1)NC(=O)CC(C)C)C(C)C)C(=O)N[C@H](CO)C(C)C [Compound 42, N-[(1S,2S)-1-((S)-1-Hydroxymethyl-2-methylpropylcarbamoyl)-2-methylbutyl]-(S)-3-(S)-amino-4-{(S)-3-methyl-2-[(S)-2-(3-methylbutyrylamino)-3-phenylpropionylamino]butyrylamino}-5-phenylpentanamide] | 3.6 |  |
| CC[C@H](C)[C@H](NC(=O)C[C@H](N)[C@H](Cc1ccccc1)NC(=O)[C@@H](NC(=O)[C@H](Cc1ccccc1)NC(=O)OC(C)(C)C)C(C)C)C(=O)N[C@H](C(=O)OC)C(C)C [Compound 20, Methyl (S)-2-((2S,3S)-2-{(3S,4S)-3-amino-4-[(S)-2-((S)-2-tert-butoxycarbonylamino-3-phenylpropionylamino)-3-methylbutyrylamino]-5-phenylpentanoylamino}-3-methyl-pentanoylamino)-3-methylbutyrate] (Boc-FV[X1]IV-OMe) | 1 |  |

Now from value to compound:

| IC50 [1] [nM] | IC50 (recombinant human renin) [nM] | Compound |
| --- | --- | --- |
| 5.1 |  | CC[C@H](C)[C@H](NC(=O)C[C@H](N)[C@H](Cc1ccccc1)NC(=O)[C@@H](NC(=O)[C@H](CC(C)C)NC(=O)CC(C)C)C(C)C)C(=O)N[C@H](C(=O)OC)C(C)C [Compound 10, Methyl (S)-2-[(2S,3S)-2-((3S,4S)-3-amino-4-{(S)-3-methyl-2-[(S)-4-methyl-2-(3-methyl-butyrylamino)pentanoylamino]-1-oxobutylamino}-5-phenylpentanoylamino)-3-methylpentanoylamino]-3-methyl-butyrate] (Isovaleryl-LV[X1]IV-OMe) |
| 5500 |  | CC[C@H](C)[C@H](NC(=O)C[C@H](N)[C@H](Cc1ccccc1)NC(=O)[C@H](CC(C)C)NC(=O)CC(C)C)C(=O)N[C@H](C(=O)OC)C(C)C [Compound 3, Methyl (S)-2-((2S,3S)-2-{(3S,4S)-3-amino-4-[(S)-4-methyl-2-(3-methylbutyrylamino)pentanoylamino]-5-phenylpentanoylamino}-3-methylpentanoylamino)-3-methyl-butyrate] |
| 97 |  | CC[C@H](NC(=O)[C@H](CC(C)C)NC(=O)CC(C)C)C(=O)N[C@@H](Cc1ccccc1)[C@@H](N)CC(=O)N[C@H](C(=O)N[C@H](C(=O)OC)C(C)C)[C@@H](C)CC [Compound 4, Methyl (S)-2-[(2S,3S)-2-((3S,4S)-3-amino-4-{(S)-2-[(S)-4-methyl-2-(3-methylbutyrylamino)pentanoylamino]-1-oxobutylamino}-5-phenylpentanoylamino)-3-methyl-pentanoylamino]-3-methylbutyrate] (Isovaleryl-L[Abu][X1]IV-OMe) |
| 47 |  | CC[C@H](C)[C@H](NC(=O)C[C@H](N)[C@H](Cc1ccccc1)NC(=O)[C@@H](NC(=O)[C@H](CC(C)C)NC(=O)CC(C)C)C(C)C)C(=O)N[C@H](C(=O)OC)[C@@H](C)CC [Compound 13, Methyl (2S,3S)-2-[(S)-2-((S)-3-(S)-amino-4-{(S)-3-methyl-2-[(S)-4-methyl-2-(3-methyl-butyrylamino)pentanoylamino]butyryl-amino}-5-phenylpentanoylamino)-3-methyl-1-(S)-oxopentylamino]-3-methylpentanoate] (Isovaleryl-LV[X1]II-OMe) |
| 6.2 |  | CC[C@H](C)[C@H](NC(=O)C[C@H](N)[C@H](Cc1ccccc1)NC(=O)[C@@H](NC(=O)[C@H](CC(C)C)NC(=O)CC(C)C)C(C)C)C(=O)N[C@H](CO)C(C)C [Compound 34, N-[(1S,2S)-1-((S)-1-Hydroxymethyl-2-methylpropylcarbamoyl)-2-methylbutyl]-(S)-3-(S)-amino-4-{(S)-3-methyl-2-[(S)-4-methyl-2-(3-methylbutyrylamino)pentanoyl-amino]butyrylamino}-5-phenylpentanamide] |
